Among the targets are RSK4 (Homo sapiens, UniProt Q9UK32); RSK2 (Homo sapiens, UniProt P51812); RSK3 (Homo sapiens, UniProt Q15349).
Holding throughout (assay): KINOMEscan panel
Holding throughout (format): biochemical

Assay [1] deals with RSK1 (ribosomal protein S6 kinase A1) (Homo sapiens, UniProt Q15418).
Sequence of RSK1 (ribosomal protein S6 kinase A1) (Q15418 whole entry): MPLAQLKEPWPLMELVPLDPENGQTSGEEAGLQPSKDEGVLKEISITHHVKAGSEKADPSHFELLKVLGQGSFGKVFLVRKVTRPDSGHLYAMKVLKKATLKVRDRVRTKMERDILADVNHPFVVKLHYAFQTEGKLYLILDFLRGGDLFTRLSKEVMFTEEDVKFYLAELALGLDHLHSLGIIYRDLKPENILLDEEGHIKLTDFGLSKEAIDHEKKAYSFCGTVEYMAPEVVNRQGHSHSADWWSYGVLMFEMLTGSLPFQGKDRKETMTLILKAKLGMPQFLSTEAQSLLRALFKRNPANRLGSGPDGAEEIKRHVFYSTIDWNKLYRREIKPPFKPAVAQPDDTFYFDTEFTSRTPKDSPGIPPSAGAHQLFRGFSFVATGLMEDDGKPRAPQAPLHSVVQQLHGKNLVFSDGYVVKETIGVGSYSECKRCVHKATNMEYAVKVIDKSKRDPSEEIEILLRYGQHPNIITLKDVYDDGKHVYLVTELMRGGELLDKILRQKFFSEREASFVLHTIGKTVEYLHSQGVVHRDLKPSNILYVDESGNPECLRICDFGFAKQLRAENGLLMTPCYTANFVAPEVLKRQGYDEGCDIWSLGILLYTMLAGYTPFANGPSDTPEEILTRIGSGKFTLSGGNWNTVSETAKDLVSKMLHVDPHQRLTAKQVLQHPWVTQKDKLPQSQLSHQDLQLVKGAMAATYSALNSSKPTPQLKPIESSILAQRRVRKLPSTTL

Sequence of RSK4 (Q9UK32 whole entry): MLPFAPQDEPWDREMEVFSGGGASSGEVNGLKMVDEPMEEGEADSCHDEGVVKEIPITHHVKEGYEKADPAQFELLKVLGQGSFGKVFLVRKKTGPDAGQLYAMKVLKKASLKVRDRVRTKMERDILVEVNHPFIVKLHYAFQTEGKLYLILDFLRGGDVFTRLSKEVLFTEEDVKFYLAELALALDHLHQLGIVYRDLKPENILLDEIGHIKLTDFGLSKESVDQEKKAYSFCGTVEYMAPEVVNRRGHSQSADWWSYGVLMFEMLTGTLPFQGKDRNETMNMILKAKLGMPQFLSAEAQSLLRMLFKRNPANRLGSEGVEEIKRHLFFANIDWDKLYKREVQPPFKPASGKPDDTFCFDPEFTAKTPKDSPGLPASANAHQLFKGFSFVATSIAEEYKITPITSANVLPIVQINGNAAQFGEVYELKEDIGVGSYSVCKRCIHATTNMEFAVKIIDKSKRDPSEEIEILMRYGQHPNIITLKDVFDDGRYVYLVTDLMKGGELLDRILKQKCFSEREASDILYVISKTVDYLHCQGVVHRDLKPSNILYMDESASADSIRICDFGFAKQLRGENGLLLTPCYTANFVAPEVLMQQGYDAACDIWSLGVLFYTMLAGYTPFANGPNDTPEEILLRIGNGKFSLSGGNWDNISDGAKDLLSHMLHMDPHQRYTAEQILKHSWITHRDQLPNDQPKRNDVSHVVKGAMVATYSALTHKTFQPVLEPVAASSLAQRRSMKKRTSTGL
Sequence of RSK3 (Q15349 whole entry): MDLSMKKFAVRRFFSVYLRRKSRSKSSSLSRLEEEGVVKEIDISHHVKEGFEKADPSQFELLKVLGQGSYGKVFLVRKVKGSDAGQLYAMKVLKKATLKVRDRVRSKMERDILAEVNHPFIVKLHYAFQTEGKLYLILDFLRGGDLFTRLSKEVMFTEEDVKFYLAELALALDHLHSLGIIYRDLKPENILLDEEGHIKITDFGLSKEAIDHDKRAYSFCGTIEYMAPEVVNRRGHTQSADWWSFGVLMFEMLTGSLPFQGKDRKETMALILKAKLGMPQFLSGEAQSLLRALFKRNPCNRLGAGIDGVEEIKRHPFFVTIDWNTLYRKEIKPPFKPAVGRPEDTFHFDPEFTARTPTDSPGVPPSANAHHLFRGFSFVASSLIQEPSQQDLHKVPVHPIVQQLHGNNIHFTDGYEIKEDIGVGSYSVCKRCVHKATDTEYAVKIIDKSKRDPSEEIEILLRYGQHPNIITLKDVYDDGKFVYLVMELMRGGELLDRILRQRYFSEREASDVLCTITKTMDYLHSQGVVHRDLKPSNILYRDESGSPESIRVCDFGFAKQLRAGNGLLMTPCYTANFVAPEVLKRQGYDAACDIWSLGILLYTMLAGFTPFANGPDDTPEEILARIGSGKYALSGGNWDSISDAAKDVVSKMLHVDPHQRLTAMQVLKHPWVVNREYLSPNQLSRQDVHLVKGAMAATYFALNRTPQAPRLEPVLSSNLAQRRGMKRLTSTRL
Sequence of RSK2 (P51812 whole entry): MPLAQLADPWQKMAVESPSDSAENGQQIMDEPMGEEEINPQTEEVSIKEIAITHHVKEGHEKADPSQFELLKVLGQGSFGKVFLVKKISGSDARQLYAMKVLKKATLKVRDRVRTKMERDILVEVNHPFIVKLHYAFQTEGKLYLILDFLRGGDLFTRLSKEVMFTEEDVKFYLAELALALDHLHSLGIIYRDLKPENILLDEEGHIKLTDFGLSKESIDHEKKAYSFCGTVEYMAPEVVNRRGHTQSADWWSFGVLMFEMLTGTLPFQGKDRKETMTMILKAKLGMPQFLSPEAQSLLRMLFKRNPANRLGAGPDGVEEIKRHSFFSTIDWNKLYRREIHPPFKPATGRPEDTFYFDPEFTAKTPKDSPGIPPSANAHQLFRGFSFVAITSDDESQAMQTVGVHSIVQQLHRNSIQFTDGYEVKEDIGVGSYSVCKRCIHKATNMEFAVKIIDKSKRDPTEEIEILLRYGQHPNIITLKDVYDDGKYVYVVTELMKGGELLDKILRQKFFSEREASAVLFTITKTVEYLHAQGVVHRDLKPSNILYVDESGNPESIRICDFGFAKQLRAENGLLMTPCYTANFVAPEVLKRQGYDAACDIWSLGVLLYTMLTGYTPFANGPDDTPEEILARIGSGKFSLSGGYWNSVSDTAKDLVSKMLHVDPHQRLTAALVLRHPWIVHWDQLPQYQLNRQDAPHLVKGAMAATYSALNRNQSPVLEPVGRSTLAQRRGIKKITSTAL

Take PMD-026: the IC50 (in general, the concentration needed to halve the response being measured) was found to be 2 nM against RSK4, 0.7 nM at RSK2, 2 nM in assay [1] and 0.9 nM against RSK3.

Source of the values: publication PMC11739599 (Nature Communications, 2025).
